Results on two compounds are retold here after paper PMC7766327, “Inhibition of Pneumolysin Cytotoxicity by Hydrolysable Tannins” (Antibiotics, 2020).

Usually inhibition stands for the drop in the measured response relative to a control, in per cent. High values mean a response far below the control, low ones a response near the control. The IC50 is the midpoint of a concentration-inhibition curve.

Assay [1] has as its system Ply. More on the design: method as in PMID 15928084. The conditions noted are these: cited from earlier work.
Assay [2] concerns the target T1, pneumolysin (Ply) (Streptococcus pneumoniae serotype 2, UniProt Q04IN8).
T1 construct: made in house; host or cells: E. coli BL21(DE3)
Briefly: A549 cell cytotoxicity assay (LDH release). Type of assay: cell-based. The conditions noted are these: 2 nM Ply, A549 cells, 2 h. The procedure:
For the A549 cell cytotoxicity assay, 5000 cells/well of A549 cells were grown in Dulbecco’s modified Eagle Medium, DMEM (Thermo Fischer Scientific Inc., Waltham, MA, USA), 2 mM glutamine and 10% fetal calf serum (FCS) for 48 h in 96-well microtiter plates. Cells were washed with PBS and dilutions of PGG (0, 125, 250, 500, 1000 and 2000 nM) and 2 nM Ply in PBS were added to the wells and they were incubated for 2 h at 37 °C in 5% CO2 atmosphere. Ply cytotoxicity was determined with the Cytotoxicity Detection Kit^PLUS (Roche Diagnostics GmbH, Mannheim, Germany) according to the manufacturer’s instructions. The released LDH was measured at A490. Complete lysis control was measured in the presence of 0.02% Triton X-100, and for background measurements, cells were incubated without Ply. The values were normalized by calculating using the equation (A490 Ply+inhibitor − A490 Background)/(A490 Triton X-100 − A490 Background)(1)
A general note: Release of lactate dehydrogenase indicates damage to the cell membrane.

Assay [3] concerns the target T1, pneumolysin (Ply). Briefly: cell-based. Type of assay: cell-based. Here is the method: Native human erythrocytes were taken into EDTA tubes. The erythrocytes were washed three times with PBS (0.15 M NaCl, 2.7 mM KCl, 8.1 mM Na2HPO4 and 1.5 mM KH2PO4) by centrifugation at 700× g for 10 min. The purified erythrocytes were stored at +4 °C. Erythrocytes (1% v/v) in PBS were mixed with 1 nM Ply and dilution series of polyphenol inhibitors in 96-well microtiter plates. The reaction was incubated for 30 min at 37 °C. The plates were centrifuged, and the supernatant was pipetted into flat-bottomed microtiter plates to measure the absorbance at 570 nm (VICTOR X4, PerkinElmer, Turku, Finland) of the released hemoglobin from lysed erythrocytes. The absorbances of triplicate measurements are presented as a function of inhibitor concentration. The IC50 values were calculated with Origin data analysis software (2016, OriginLab Corporation, Northampton, MA, USA).

For assay [4], the target named is T1, pneumolysin (Ply). Put plainly: Pneumolysin oligomerization assay using erythrocytes. Type of assay: cell-based. Here is the method:
For the oligomerization assay, 100 nM Ply (3 µg), 1% (v/v) erythrocytes and 100 µM PGG in PBS were incubated for 2 min at 25 °C and were centrifuged at 16,000× g for 30 min at +7 °C. The pellet containing intact erythrocytes and the membranes from lysed cells were suspended into the water to complete the lysis and recentrifuged at 16,000× g for 30 min. The membranes were suspended into an SDS-PAGE sample buffer (60 mM Tris-HCl, pH 6.8; 2% SDS; 0.001% bromophenol blue; 0.5% β-mercaptoethanol) without incubation at 95 °C and the proteins were separated in 6% SDS-PAGE gel. The gel was stained with Coomassie blue (40% methanol; 10% acetic acid; 0.25% Brilliant blue R-250) and destained in 20% methanol and 5% acetic acid overnight. The proteins were transferred to polyvinyldifluoride (PVDF) membrane for 30 min, 25 V in SDS-PAGE running buffer (25 mM Tris, 190 mM glycine, 0.1% SDS) using the Trans-Blot Turbo Transfer System (Bio-Rad Laboratories Inc., Hercules, CA, USA). The membrane was blocked with 5% (w/v) defatted milk powder in TBS-Tween (10 mM Tris pH 7.5; 150 mM NaCl; 0.05% Tween 20) for 30 min at 25 °C. The His-tagged Ply was detected with anti-His antibody (1:5000 dilution, Sigma-Aldrich, St. Louis, MO, USA) and horseradish […] anti-mouse antibody (1:10,000 dilution, DakoCytomation, Glostrup, Denmark). […]

Assay [5] addresses T1, pneumolysin (Ply). Briefly: Precipitation assay of pneumolysin-tannin interaction. It is filed as binding. The procedure: The precipitation assay with tannins was done as described previously with bovine serum albumin [22]. First, 10 μM of Ply and dilution series of polyphenols (5–1000 µM) were incubated in a Na-acetate buffer (200 mM NaCl and 50 mM CH3COONa; pH 5.0) at 25 °C for 30 min with shaking. The reactions were carried out in Multiskan Ascent plate reader (Labsystems, Vantaa, Finland) and the precipitation was measured at 414 nm. The minimum concentration precipitating Ply was calculated with Origin data analysis software (2016, OriginLab Corporation, Northampton, MA, USA).

T1 sequence (Q04IN8 whole entry): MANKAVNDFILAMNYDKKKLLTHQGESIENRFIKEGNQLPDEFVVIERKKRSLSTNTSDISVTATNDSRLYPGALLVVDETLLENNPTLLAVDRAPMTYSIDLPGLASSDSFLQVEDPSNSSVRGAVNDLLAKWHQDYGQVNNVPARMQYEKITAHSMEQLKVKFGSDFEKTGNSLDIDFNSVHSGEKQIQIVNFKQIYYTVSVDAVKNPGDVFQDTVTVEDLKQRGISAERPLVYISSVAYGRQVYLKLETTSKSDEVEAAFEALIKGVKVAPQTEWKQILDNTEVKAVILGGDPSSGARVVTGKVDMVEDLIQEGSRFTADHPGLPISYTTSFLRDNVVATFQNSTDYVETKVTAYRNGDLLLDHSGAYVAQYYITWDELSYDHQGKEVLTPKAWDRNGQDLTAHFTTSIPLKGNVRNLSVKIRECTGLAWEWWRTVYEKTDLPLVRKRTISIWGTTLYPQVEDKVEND

As for `O=C(O[C@@H]1Cc2c(O)cc(O)cc2O[C@@H]1c1cc(O)c(O)c(O)c1)c1cc(O)c(O)c(O)c1` [EGCG, epigallocatechin gallate], in assay [1], the “Concentration required for inhibition of Ply hemolytic activity” value is listed as “micromolar concentrations were required”.
`O=C(OC[C@H]1O[C@@H](OC(=O)c2cc(O)c(O)c(O)c2)[C@H](OC(=O)c2cc(O)c(O)c(O)c2)[C@@H](OC(=O)c2cc(O)c(O)c(O)c2)[C@@H]1OC(=O)c1cc(O)c(O)c(O)c1)c1cc(O)c(O)c(O)c1` [PGG, 1,2,3,4,6-penta-O-galloyl-β-D-glucose] yielded an inhibition at 0.5 µM in assay [2] (500 nM PGG, compared to pneumolysin alone) of 60%. Also, 1 µM produced 87% inhibition in assay [2] (1000 nM PGG, compared to pneumolysin alone). At 2 µM the inhibition in assay [2] (2000 nM PGG, compared to pneumolysin alone) was 90%. The “Inhibition of LDH release” value in assay [2] (≤250 nM PGG) is reported as “moderate inhibition”. Further, the “Hemolysis Inhibition Inhibitory Power” value in assay [3] was determined as 13. Further, the IC50 in assay [3] (Hemolysis Inhibition IC50, 1 nM Ply, 1% human erythrocytes, 30 min 37 °C, logistic fit) was 18 ± 0.7 nM; in assay [3] (IC50 (screening with hemolysis assays), estimated from the inhibition curves, two-fold dilutions of tannins), 10 nM. In addition, the “Inhibitor class in hemolysis inhibition assay” value in assay [3] (classification by IC50 from two-fold dilutions) is “potent (potent inhibitors (IC50 10–30 nM))”. Also, in assay [4] (100 µM PGG, 100 nM Ply, Coomassie-stained SDS-PAGE), the “Ply oligomer complex on erythrocytes” value is on record as “abolished”. For the same compound, in assay [4] (dilution series of PGG (0–100 µM), Western blotting with anti-His antibody), the “Concentration that still inhibited Ply oligomerization” value is listed as 30 µM. Moreover, the “Minimum Precipitating Concentration” value in assay [5] (10 μM Ply, Na-acetate buffer pH 5.0, 25 °C, 30 min, absorbance 414 nm) was 14 µM. Moreover, the “Precipitation Relative Power” value in assay [5] (fold compared to vescalagin (=1)) came out at 58. In assay [5] (minimum precipitating concentration vs hemolysis IC50), the “Fold higher precipitating concentration compared to hemolysis IC50” value came out at 770 fold.
